According to patent US7662860B2 (priority 2003, dated 2010):

Biological target: SARS-CoV virus 3CL protease protein (Severe acute respiratory syndrome coronavirus, UniProt P0C6X7)
Assay: biochemical
Format: binding

`CN(C)CCCSc1ccccc1NC(=O)C=Cc1ccccc1` [cinanserin, 2′-(3-dimethylaminopropylthio)cinnamanilide] gave a kd of 0.00993 s⁻¹ and a kon (read-out: ka) of 38600 M⁻¹ s⁻¹.
